In patent US20080051393A1, “Novel cannabinoids and methods of use” (Eastern Virginia Medical School, priority 2006, published 2008):
“Also recorded” adds a separate entry of the source.

Assays:
[1] = system: optic nerve; test: Rat NMDA model: optic nerve histology; assay type: in vivo
Protocol: (§1) Rat NMDA Model. To mimic glaucomatous damage to the retina without a potentially confounding effect on IOP, retinal damage was induced by NMDA in a rat model. Following baseline measurements, e.g. IOP, ERG, slit lamp, fundus photography, heart rate and blood pressure, N-methyl D-aspartate (NMDA, 2 μl of 10 mM) was injected intravitreally to induce RGC damage. […] For positive identification, a hand scanner was used each time the rat was examined. This was necessary since the examiners will be masked as to treatment group. Treatment groups consisted of either NMDA only (control), O-1812 (0.1%) or O-2545 (0.1%), O-1812 (0.1%)+SR-141716 (2 mM), O-2545 (0.1%)+SR-141716 (2 mM), O-1812 (0.1%)+SR-144258 (2 mM) and O-2545 (0.1%)+SR-144258 (2 mM). All experiments were conducted in accordance with the policies of the Institutional Animal Care and Use Committee and the ARVO policy on use of animals in experiments. A minimum of two baseline ERG measurements was recorded 1 wk prior, 1 wk and 2 wk post injection. At the end of each experiment, rats were sacrificed and their eyes were preserved for histological assessment of effects on the retina and optic nerve.
Histology. For retinal flat mounts, retinas were dissected from formalin fixed whole eyes, mounted on superfrost glass slides, stained with hematoxylin and eosin and digitally photographed. […]

[2] = system: retinal ganglionic cells (RGC); test: Rat NMDA model: retinal flat mounts, RGC count; assay type: in vivo; details: NMDA model, retinal flat mounts
Protocol: as §1
Histology. For retinal flat mounts, retinas were dissected from formalin fixed whole eyes, mounted on superfrost glass slides, stained with hematoxylin and eosin and digitally photographed. For analysis, the retina was divided into four quadrants. A minimum of five 50 μm^2 sections per quadrant were used to count cell number. The cell sections were selected to be equidistant from the optic cup for all quadrants. For optic nerve experiments, the optic nerve was dissected at the margin of the optic disk and embedded in cryo media. Sections of 10 μm thickness were cut and mounted on superfrost glass slides and stained with hematoxylin and eosin. The slides were digitally photographed.

[3] = system: IOP in a rat glaucoma model; test: Combination therapy: IOP in a rat glaucoma model; assay type: in vivo, Sprague Dawley rats; details: 1.0% topical alone, 120 min
From the text: (§2) Rat Glaucoma Model. Compared to acute studies, a chronic rat model of glaucoma was generated. The rats were made glaucomatous by ligating three vortex veins (Hosseini, A. et al. (2006) Chronic topical administration of WIN-55-212-2 maintinas a reduction in IOP in a rat glaucoma model without adverse effects. Exp. Eye Res. 82(5):753-9). More specifically, ocular hypertension was induced in Sprague-Dawley rats by ligating 3 of 4 episcleral veins of the right eye using 9.0 nylon sutures under anesthesia with 3 mg/Kg acepromazine and 20 mg/Kg ketamine. Within 6 wk, IOP increased by at least 5 mm Hg in the operated eye. This intervention produced at least a 30% increase in IOP in the operated eye and lasted for up to 60 weeks. During this time, a 30% loss of retinal function was documented by ERG. […] Thus, the model accurately mimics the progressive damage that occurs in patients with glaucoma.
(§3) Measurements of Intraocular Pressure. IOP elevation was measured under mild sedation using a calibrated Goldmann tonometer modified for rats. Three determinations were averaged for each eye. To account for diurnal variation, all IOP's were measured between 11 am and 1 pm during the daily trough period.
Combination Therapy. Since cannabinoids and timolol, which are both known to reduce IOP, have different mechanisms of action, there is potential for a synergistic effect. The combination of timolol and a synthetic cannabinoid (WIN55 212-2, O-1812, or O-2545) to reduce IOP in a chronic rat model of ocular hypertension was examined. Surgical ligation of three of the four episcleral veins in one eye of Sprague Dawley rats caused a long lasting (>44 week) increase in IOP. IOP was measured by Goldmann tonometry at baseline (−30), 0, 30, 60 and 120 min, as was heart rate and blood pressure. For combination therapy, after baseline IOP measurement, timolol 0.5% was applied topically followed 30 min later by WIN55 212-2 1.0%, O-1812 1.0%, or O-2545 1.0%. In another experiment, O-1812 1.0% and O-2545 1.0% were administered simultaneously. An analysis for ocular irritation was performed by slit lamp examination (SLE) at baseline and 150 min.

[4] = system: Rat NMDA Model; test: Rat NMDA model: electroretinogram a-wave; assay type: in vivo; details: for Effect of CB1 antagonist SR-141716 on the action of the drug (ERG a-wave): drug 0.1% + SR-141716 2 mM
Protocol: as §1
Electroretinogram. In normal retina, full field electroretinography (ERG) stimulates both rods (a-waves) and cones (b-waves). A decrease in their amplitudes indicates retinal functional damage. Scotopic ERG changes were measured in rats that were dark-adapted for at least 4 hours. Eyes were then dilated with 1% atropine after which 0.5% proparacaine and methylcellulose gel (GPS 2.5%) was applied topically. Custom made AgCl electrodes were placed on the apex of the cornea. Stimuli consisted of 10-μsec flashes of unattenuated white light generated by a Ganzfeld bowl photo stimulator. Data from each eye were recorded separately with a driver amplifier and acquired digitally via DASYLab. The contralateral normal eye served as an age matched negative control, e.g. response in a normal, undamaged eye. Differences in amplitude of the a- and b-waves between the operated eye and the contralateral eye were calculated and analyzed by ANOVA and t-test.

[5] = system: IOP in a rat glaucoma model; test: IOP after topical application in chronic rat glaucoma model; assay type: in vivo, Sprague-Dawley rats; details: for Effect on IOP compared to baseline or vehicle: all concentrations tested
From the text: as §2, §3
Therapeutic Regimen. For IOP Measurements (Topical application) Baseline IOP, heart rate, blood pressure and normal ocular anatomy were documented prior to drug administration. The drugs WIN 55-212-2 (0.1%, 1.0%), O-1812 (0.01%, 0.1%, 1.0%), O-2545 (0.1%, 1.0%) were all dissolved in Tocrisolve™ (vehicle). IOP, heart rate, and blood pressure were measured prior to and after 30, 60 and 120 min after topical administration. Contralateral eyes served as vehicle treated controls.

[6] = Ocular toxicity by slit lamp, MacDonald-Shadduck scoring; assay type: in vivo, rats; details: topical
Protocol: Slit Lamp Biomicroscopy/Digital Photography. Ocular toxicity was measured using slit lamp examination and performed using a modified MacDonald-Shadduck semi-quantitative scale for ocular irritation (McDonald, T. O. and Shadduck, J. A. (1987) Eye irriation. In Dermatotoxicology. 3rd Ed. Mazulli and Maibach. Pp 641-696. Washington, DC: Hemisphere). All eyes were examined by a slit lamp fitted with a color digital camera for digital photography of conjunctiva, cornea, and anterior camber. Images were stored and analyzed using a digital video system (Lombart Instruments DVS System). At baseline and following drug administration, eyes were examined for conjunctival congestion, conjunctival discharge, corneal edema, aqueous flare, fibrin, and iris congestion (Samudre, S. S. et al. (2004) Comparison of Topical Steroids for Acute Anterior Uveitis. J. Ocul. Pharmacol. Ther. 20 (6):533-547). Knowledgeable, masked observers rated each factor on a semi-quantitative four point scale where zero was coded normal, 1=minimal, 2=moderate and 3=severe involvement. Results were compared to the normal baseline evaluation performed before treatment and also with the untreated contralateral eye.

[7] = Corneal thickness by in vivo confocal microscopy; design: species or system rats; details: 1.0% treated eye (OD) vs contralateral control (OS)
Protocol: Confocal Microscopy. Repeated noninvasive in vivo visualization of cornea and anterior segments for the presence, location and number of inflammatory cells, as well as fibrin, hyper-refractile bodies and changes in epithelial, stromal and endothelial cell morphology was performed by confocal microscopy. Prior to applanation, rats were sedated and 0.5% proparacaine was applied topically. Data was analyzed using the Metamorph imaging system (Universal Imaging, Downingtown, Pa.).

[8] = system: peripheral retinal ganglion cell; details: cited from earlier work

SMILES | Protection of optic nerve against NMDA induced damage [1] | Preservation of the number of RGCs [2] | IOP at 120 min (% Baseline) [3] | Effect of CB1 antagonist SR-141716 on the action of the drug (ERG a-wave) [4] | IOP after 60 min (% of Baseline) ([5]; 0.01% topical, 60 min) | IOP after 60 min (% of Baseline) ([5]; 0.10% topical, 60 min) | IOP after 60 min (% of Baseline) ([5]; 1.0% topical, 60 min) | Effect on IOP compared to baseline or vehicle ([5]; topical) | Ocular toxicity / signs of ocular inflammation [6] | Time for which significant IOP reduction was maintained ([5]; 1.0% topical) | Effect on IOP at 30 min ([5]; 1.0% topical) | other results
C[C@H](CO)NC(=O)CCC/C=C\C/C=C\C/C=C\C/C=C\C(C)(C)CCCCC#N [Compound O-1812] | prevented much of the NMDA induced damage | preserved the number of RGCs | 62.0 ± 0.5 % Baseline | effectively blocked | 81.9 ± 2.7 % of Baseline | 78.3 ± 3.1 % of Baseline | 61.9 ± 3.9 % of Baseline | effective; also recorded: significantly reduced IOP | non-toxic | – | – | RGCs preserved [2]: up to 83%; Retinal function, A-wave ERG (percentage of the contralateral normal eye) ([4]; NMDA intravitreal, drug 0.1%): more effectively preserved retinal function; Effect of CB2 antagonist SR-144258 on the action of the drug (ERG a-wave) ([4]; drug 0.1% + SR-144258 2 mM): no effect; Effect on IOP ([5]; 0.01% topical): significantly reduced IOP; Time for which the IOP decrease was maintained ([5]; 0.01% topical): ≤ 60 min; Relative efficacy in IOP reduction ([5]; 1.0% topical): most efficacious; Onset of IOP lowering action ([5]; topical): most rapid onset
CC1=CC[C@@H]2[C@@H](C1)c1c(O)cc(C(C)(C)CCCCn3ccnc3)cc1OC2(C)C [Compound O-2545] | prevented much of the NMDA induced damage | preserved the number of RGCs | 65.5 ± 0.8 % Baseline | effectively blocked | – | 77.8 ± 2.8 % of Baseline | 76.4 ± 2.8 % of Baseline | – | – | up to 120 min | significantly reduced IOP | Time for which significant IOP reduction was maintained ([5]; 0.1% topical): up to 120 min; Effect on IOP at 30 min ([5]; 0.1% topical): significantly reduced IOP; Duration of IOP lowering action ([5]; topical): longest duration of action
Cc1c(C(=O)c2cccc3ccccc23)c2cccc3c2n1[C@H](CN1CCOCC1)CO3 [WIN 55-212-2, reference compound] | – | – | 48.8 ± 2.8 % Baseline | – | 83.1 ± 5.5 % of Baseline | – | 58.3 ± 5.6 % of Baseline | effective | non-toxic | up to 120 min | significantly reduced IOP | Corneal thickness [7]: remained unchanged; Effect on IOP compared to vehicle or baseline ([5]; 0.1% topical): not significantly different from either vehicle or baseline; Effect on IOP at 60 min ([5]; 1.0% topical, 60 min): significantly reduced
N=C(N)NN [aminoguanidine] | – | – | – | – | – | – | – | – | – | – | – | Less peripheral retinal ganglion cell loss compared to untreated rats [8]: 26%
